This note sets out measurements from US5504085A, “Triazolo quinoxalines and their preparation and use” (Novo Nordisk A/S, priority 1991, dated 1996).

As usually defined, the IC50 is the point on the concentration scale where inhibition reaches its midpoint.

Assay [1] concerns quisqualic acid stimulated spreading depression in chicken retina. The assay is described as follows: Spreading depression (Test 2): inhibition of quisqualic acid stimulated spreading depression in chicken retina. The settings on record: Gallus gallus, 0.25 h, quisqualate 1 μg/ml, 26° C., 15 min incubation with test compound, read-out: TEST 2 IC50 (50% maximal inhibition of quisqualic acid stimulated spreading depression). In kind it is cell-based. The source says: The influence of glutamic add analogues on secondary effects of glutamate receptor interactions may be studied in vitro by using the phenomenon of spreading depression in chicken retina. Such experiments will provide information as to the efficades (agonist/antagonist) of the test substances. This is in contrast to binding studies, which only provide information on the affinities of the compounds for the receptor.
The pharmacological properties of the compounds of the present invention can be illustrated by determining their capability for displacing radioactively labelled 2-amino-3-hydroxy-5-methyl-4-isoxazolepropionic acid (AMPA) from the AMPA type receptors.
The antagonism is measured by determining the IC50 value which represents the concentration which produces a ,50% maximal inhibition of quisqualic acid stimulated spreading depression in chicken retina.
Spreading depression (Test 2) […]
The eyes are initially incubated in normal P.S.S. for 15-30 min. and then transferred to P.S.S. containing quisqualate (1μ g/ml). […] The time taken for an S.D. to start in each eye is measured.
After a further 15 min. of incubation in normal P.S.S. the eyes are transferred to normal P.S.S. containing the test compound and incubated for 15 min. […] The time taken for an S.D. to start in each eye is again measured. […]

Assay [2] has as its target AMPA receptors (rat cerebral cortical membrane homogenate). The assay is described as follows: 3H-AMPA binding (Test 1): displacement of 3H-AMPA from AMPA type receptors. The settings on record: 5 nM 3H-AMPA, 0° C., 30 min, pH 7.1. The protocol:
The affinity of a substance for one or more of the different types of excitatory amino acid receptors may be studied in simple binding experiments. In essense, the method involves incubation of a particular selected radiolabelled ligand and the particular specific substance to be investigated with brain homogenate which contains the receptor. Measurement of receptor occupancy is made by determination of the radioactivity bound to the homogenate and subtraction of nonspecific binding.
AMPA receptor binding may be studied by using ^3 H-AMPA as radioligand.
The pharmacological properties of the compounds of the present invention can be illustrated by determining their capability for displacing radioactively labelled 2-amino-3-hydroxy-5-methyl-4-isoxazolepropionic acid (AMPA) from the AMPA type receptors. […]
500 μl of thawed rat cerebral cortical membrane homogenate in Tris-HCl (30 mM), CaCI2 (2.5 mM) and KSCN (100 mM) pH 7.1 were incubated at 0° C. for 30 min. with 25 μl ^3 H-AMPA (5 nM final concentration) and the test compound and buffer. Non specific binding was determined by incubation with L-glutamic acid ([…] final concentration). […] Bound radioactivity was measured by scintillation counting. IC50 was determined by Hill analysis of at least four concentrations of test compound.
For orientation: Displacement assays read how much labelled ligand stays bound in the presence of the test substance.

≈ marks a conversion by molar mass, not a printed value.

With `O=c1[nH]c2cc(C(F)(F)F)ccc2n2c(=O)[nH]nc12` [Example 3, 7-Trifluoromethyl 1,2, 4!triazolo 4,3-a!quinoxaline-1,4(2H,5H)-dione], the concentration for half-maximal inhibition (IC50) in assay [1] stood at 1.3 µg/mL (≈ 4.81 µM). Further, in assay [2], the “TEST 1 IC50 (displacement of 50% of the specific binding of 3H-AMPA)” value turned out to be 1.3 µg/mL.
On to `N#Cc1ccc2c(c1)[nH]c(=O)c1n[nH]c(=O)n12` [Example 4, 7-Cyano 1,2,4!triazolo 4,3-a!quinoxaline-1,4(2H, 5H)-dione], for which the concentration for half-maximal inhibition (IC50) in assay [1] came out at 0.47 µg/mL (≈ 2.07 µM). In assay [2], the “TEST 1 IC50 (displacement of 50% of the specific binding of 3H-AMPA)” value turned out to be 0.09 µg/mL.
